From patent US4240964A, “2-(O-Hydroxyphenyl)-pyrrole and process for its preparation” (BASF Aktiengesellschaft, priority 1978, dated 1980)
Structures can show the parent of a compound that is named as a salt.

How the values were obtained:
[1] = system: isoproterenol-induced tachycardia (β1); test: β1-sympatholytic action: inhibition of isoproterenol-induced tachycardia in pithed rats; assay type: in vivo, rats (Sprague-Dawley, Rattus norvegicus); settings: for ED50: Rattus norvegicus, 5 min, isoproterenol 0.1 ug/kg i.v. before and 5 minutes after test substance, read-out: β1-sympatholytic action ED 50% (dose which inhibits the isoproterenol-induced tachycardia by 50%); for β1-sympatholytic activity, times greater than propranolol: comparison with propranolol
Procedure: The β-sympatholytic action was tested on rats, in comparison with the known β-sympatholytic agent propranolol (1-isopropylamino)-1-naphthyloxy-2-propanol.HC1).
^1 Inhibition of isoproterenolinduced tachycardia in pithed rats.
Intravenous administration
^2 Dose which inhibits the isoproterenolinduced tachycardia by 50%

[2] = for Therapeutic range, absolute (LD 50 / ED 50%): LD 50 i.p. mice, ED 50% i.v. rats; for Therapeutic range (LD 50 / ED 50%), times greater than propranolol: comparison with propranolol; for Therapeutic range, relative (Propranolol = 1.00): relative to propranolol
Procedure: Isoproternol was administered before, and 5 minutes after, the intravenous administration of the test substances.

in vivo = settings: mouse, ip

Structure (SMILES) | ED50 ([1]; intravenous, pithed rats) | β1-sympatholytic activity, times greater than propranolol [1] | Therapeutic range, absolute (LD 50 / ED 50%) [2] | Therapeutic range (LD 50 / ED 50%), times greater than propranolol [2] | Therapeutic range, relative (Propranolol = 1.00) [2] | LD50 at 24 h (in vivo) | R.A. (relative activity, Propranolol = 1.00), β1-sympatholytic action ([1]; intravenous, pithed rats, relative to propranolol)
CC(C)(C)NCC(O)COc1ccccc1-c1ccc[nH]1.O=C(O)/C=C/C(=O)O (stereo not shown) [Example II, 2-[2-(3-tert.-butylamino-2-hydroxypropoxy)-phenyl]-pyrrole fumarate] | 0.00227 mg/kg | 5.6 times | 767 | 7 times | 6.91 | 165 mg/kg | –
CC(C)NCC(O)COc1ccccc1-c1ccc[nH]1 (stereo not shown) [Example III, 2-[2-(3-isopropylamino-2-hydroxypropoxy)-phenyl]-pyrrole fumarate hemihydrate] | 0.004 mg/kg | 3.2 times | 452 | 4 times | 4.07 | 97.2 mg/kg | –
CC(C)NCC(O)COc1cccc2ccccc12 (stereo not shown) [Propranolol, reference compound] | – | – | – | – | – | – | 1.00
